# Assay results: patent US20130345257A1, “COMPOSITION FOR LUPUS NEPHRITIS AND METHODS OF MAKING AND USING THE SAME” (The Regents of the University of California, priority 2012, published 2013)
# Entries after “also recorded” stand apart in the source; their conditions may differ.
# What was measured:
# Format in all cases: in vivo, mouse
# [1] = test system: BWF1 mice with high proteinuria (PU^hi); test: Therapeutic treatment of BWF1 mice after clinical nephritis / high proteinuria (PU^hi); details: for Survival: treated after clinical nephritis / PU^hi, LAQ 25 mg/kg 3 times a week, MMF 100 mg/kg 5 times a week
# Method: Therapeutic Groups: a low proteinuria group)(PU^lo) consisted of mice with IgG anti-dsDNA detectable in serum and proteinuria ≦100 mg/dL, and a high proteinuria group (PU^hi) had proteinuria ≧300 mg/dL.
# (§1) Proteinuria was evaluated weekly using Albustix (Siemens), serum creatinine using a commercial kit (Arbor Assays) and anti-dsDNA IgG antibodies by ELISA as described previously (10). See, e.g., FIGS. 1 and 2.
# (§2) Kidney specimens of BWF1 mice (37 weeks of age in the prevention group or 7 and 11 weeks after institution of early or late therapies) were embedded in OCT compound and snap frozen. 4-5 μm an sections were air-dried, fixed with cold acetone and incubated with blocking buffer (anti-CD16/CD32 (1/50), 2% normal goat or rat serum, 2% BSA).
# Histological analysis of glomerular pathology was done by an investigator blinded to treatment group and included acute inflammatory features (endocapillary hypercellularity, mesangial hypercellularity, cellular necrosis, cellular crescents, and interstitial inflammation), and chronic features (global glomerulosclerosis (GS), focal segmental glomerulosclerosis (FSGS), and interstitial fibrosis or tubular atrophy (IF/TA)). […] The weighted total score of the clinical features was based on this formula: [endocapillary hypercellularity+mesengial hypercellularity+(cellular necrosis*2)+(cellular crescents*2)+interstitial inflammation)/5]+(GS+FSGS+IFTA)/3, with maximum score 5.2. A minimum of 25 glomeruli, of at least 10 mice per group, were scored. Scores from each individual mouse were added and averaged to yield the glomerulonephritis score.
# [2] = test system: lupus nephritis in BWF1 mice; test: Preventive treatment of pre-nephritic BWF1 mice (survival, proteinuria, creatinine, anti-dsDNA, renal histology, IgG/C3 deposition); details: for Serum/plasma IgG anti-dsDNA antibody levels / Prevention of proteinuria: preventive treatment; for Serum/plasma IgG anti-dsDNA antibody levels: LAQ 1 or 25 mg/kg; for Prevention of proteinuria: both LAQ doses (1, 25 mg/kg); for Mice with proteinuria at 32 wks. of age: water 50%, p<0.0001; for Glomerular deposition of Ig and C3: treated prior to onset of clinical nephritis, vs water group p<0.001
# Method: Clinical and immune cell changes were compared in groups of 10-12 BWF1 female mice in the following groups: • Group 1: Water orally 3 times a week for 24 weeks. • Group 2: Laquinimod 1 mg/kg orally 3 times a week for 24 weeks. • Group 3: Laquinimod 25 mg/kg orally 3 times a week for 24 weeks. • Group 4: Mycophenolate Mofetil 30 mg/kg orally […] for 24 weeks. • Group 5: Mycophenolate Mofetil 100 mg/kg orally […] for 24 weeks (“MMF 100”).
# Preventive Group: 11-week old (pre-nephritic) BWF1 female mice were treated orally 3 times a week with a) water; b) laquinimod at 1 mg/kg (LAQ1, low dose) or c) 25 mg/kg (LAQ25, high dose) (Teva Pharmaceutical); or 5 times a week with d) mycophenolate mofetil at 30 mg/kg (MMF30, low dose) or e) 100 mg/kg (MMF100, high dose).
# as §1, §2
# Immunoglobulin G and C3 complement glomerular deposition were investigated by incubation of cryosections with fluoroscein isothiocyanate (FITC)-conjugated goat anti-mouse IgG (1:50) (Sigma) or rat anti-mouse C3 (1:800) (Solulink) in blocking buffer for 2 hours at room temperature. Images were acquired using Nikon Eclipse TE2000-U microscope and MetaMorph 6.3 software (Sunnyvale, Calif.). Quantification of the area immunostained in tissue sections was made using the computer image analysis software ImageJ (rsbinfonihgov</>ij</>indexhtml). For histology, kidney sections were fixed in 10% formalin and 2 μm-paraffin sections were stained with H&E, PAS and methenamine silver (Jones) for histological analysis.
# Histological analysis of glomerular pathology was done by an investigator blinded to treatment group and included acute inflammatory features (endocapillary hypercellularity, mesangial hypercellularity, cellular necrosis, cellular crescents, and interstitial inflammation), and chronic features (global glomerulosclerosis (GS), focal segmental glomerulosclerosis (FSGS), and interstitial fibrosis or tubular atrophy (IF/TA)). The severity of each feature was graded as 0 (absent), 1 (lesions involving up to 25% of the component evaluated), 2 (lesions in 26-50% evaluated) or 3 (lesions in >50%) in each field of the microscope at 400× magnification. The weighted total score of the clinical features was based on this formula: [endocapillary hypercellularity+mesengial hypercellularity+(cellular necrosis*2)+(cellular crescents*2)+interstitial inflammation)/5]+(GS+FSGS+IFTA)/3, with maximum score 5.2. A minimum of 25 glomeruli, of at least 10 mice per group, were scored. Scores from each individual mouse were added and averaged to yield the glomerulonephritis score.
# [3] = test system: leukocyte subsets present in kidney; test: Leukocyte subsets in kidney of treated BWF1 mice by flow cytometry; design: Frequency of cells ± SEM: CD11c^+CD11b− (DC) / Frequency of cells ± SEM: CD11b^+Ly6C^+Ly6G− / Frequency of cells ± SEM: CD11b^+Ly6C^+Ly6G+ / Frequency of cells ± SEM: CD4+ / Frequency of cells ± SEM: CD8+ / Frequency of cells ± SEM: CD11b^+MDSC−(Mφ) / Frequency of cells ± SEM: CD11c^+CD11b+(DC): unit not given here; details: for Frequency of cells ± SEM: CD4+ / Frequency of cells ± SEM: CD8+ / Frequency of cells ± SEM: CD11b^+Ly6C^+Ly6G+ / Frequency of cells ± SEM: CD11b^+Ly6C^+Ly6G− / Frequency of cells ± SEM: CD11b^+MDSC−(Mφ) / Frequency of cells ± SEM: CD11c^+CD11b+(DC) / Frequency of cells ± SEM: CD11c^+CD11b− (DC) / Frequency of cells ± SEM: CD19+: kidney, LAQ 25 mg/kg, MMF 100 mg/kg
# Method: Single cell suspensions of splenocytes or kidney cells were prepared using cell strainers (Fisher), followed by red blood cell lysis. Kidney lymphocytes were separated from connective tissue by centrifugation (15 minutes at 400g) in 30% Percoll (GE Healthcare). CD4^+CD25^− cells from spleen and kidney were isolated using the CD4^+CD25^+ regulatory T cell isolation kit according to manufacturer's protocol (Miltenyi). CD11b+ cells were isolated using EasySep mouse CD11b positive selection kit (StemCell Technologies), surface stained for Ly6C and Ly6G prior to sorting myeloid-derived suppressor cells (MDSC) using FACSAria II. Populations were >95% pure by FACS analysis.
# Single-cell suspensions from spleen or kidneys were stained for extracellular markers for 20 min at 4° C. in PBS/1% FBS. Intracellular staining for Foxp3 and cytokines was performed using the Foxp3 Fixation/Permeabilization kit according to the manufacturer's protocol (eBioscience). Cells were acquired on a FACS LSR II (BD) and data was analyzed using Flowjo (Tree Star).
# [4] = Preventive, 25 weeks after treatment
# [5] = Therapeutic (PU^lo), 10 wks after initiation of therapy
smiles,measurement,setting,value
"CCN(C(=O)c1c(O)c2c(Cl)cccc2n(C)c1=O)c1ccccc1 [LAQ, 5-chloro-N-ethyl-4-hydroxy-1-methyl-2-oxo-N-phenyl-1,2-dihydroquinoline-3-carboxamide]",Rise in serum creatinine,"[1]; PU^hi arm, LAQ 25 mg/kg, MMF 100 mg/kg",suppresses
same,Animals with proteinuria reduced to levels below 300 mg/dL,"[1]; PU^hi arm, after 8 weeks of treatment, LAQ 25 mg/kg, MMF 100 mg/kg",50%
same,FSGS and IF/TA histology scores,"[1]; PU^hi arm, compared to controls",significantly lower
same,Endo-capillary hypercellularity in the kidney,"[1]; PU^hi arm, versus both control and MMF-treated mice",significantly lower
same,Established proteinuria,"[1]; mice that already developed proteinuria, vs water",significant reduction of proteinuria; also recorded: suppresses proteinuria
same,Survival,[1]; vs water,better; also recorded: significantly increased survival; also recorded: survived
same,Survival,"[1]; vs water, listed as laquinimod",better
same,Mice with proteinuria present after 3 wks. of treatment,"[1]; treated after clinical nephritis appeared (≧3+ proteinuria), water 100%, p<0.001",25%
same,Histologic evidence of inflammation in the kidneys,"[1]; treatment starting after proteinuria developed, vs water",significantly less histologic evidence of inflammation
same,Survival vs. controls,"[2]; BWF1 females treated orally for 24 weeks before disease, LAQ 1 and 25 mg/kg, MMF 100 mg/kg, p=0.028",better
same,Development of proteinuria six weeks after the treatment,"[2]; FIG. 5, treated three days of each week prior to proteinuria",did not develop proteinuria
same,"Survival, low dose treatment","[2]; LAQ 1 mg/kg 3 days a week, MMF 30 mg/kg 5 days a week, prior to anti-dsDNA and proteinuria, vs water",significantly better; also recorded: still alive at 45 weeks
same,"Chronic scarring (GS, FSGS, IFTA) in kidney","[2]; higher doses, treated before proteinuria, vs water",less
same,Onset of proteinuria beyond 32 weeks up until about 42 weeks,"[2]; low dose: LAQ 1 mg/kg 3 times a week, MMF 30 mg/kg",completely prevented onset of proteinuria
same,Serum/plasma IgG anti-dsDNA antibody levels,"[2]; MMF 100 mg/kg, vs water",suppressed; also recorded: significantly lower; also recorded: lower anti-DNA levels
same,Serum/plasma IgG anti-dsDNA antibody levels,"[2]; MMF 100 mg/kg, vs water, listed as Laquinimod",suppressed
same,Prevention of proteinuria,[2]; MMF 100 mg/kg,equivalent to MMF100 and completely prevented proteinuria and prevented the appearance of proteinuria and none
same,Prevention of proteinuria,"[2]; MMF 100 mg/kg, listed as Laquinimod",equivalent to MMF 100
same,"Kidney specimens (histology, glomerular IgG and C3 deposits)","[2]; preventive, LAQ 25 mg/kg, MMF 100 mg/kg, after more than 50% of controls developed high proteinuria",largely unremarkable
same,Rise in serum creatinine levels,"[2]; preventive, LAQ 25 mg/kg, after 18 weeks of treatment",significantly delayed; also recorded: prevented a rise in serum creatinine
same,Mice with proteinuria at 32 wks. of age,"[2]; treated before disease, LAQ 1 and 25 mg/kg, MMF 100 mg/kg",zero
same,Mice with proteinuria at 32 wks. of age,"[2]; treated before disease, LAQ 1 and 25 mg/kg, MMF 100 mg/kg, listed as Laquinimod",none
same,Mean total histologic score (renal histology),"[2]; treated before disease, MMF 100 mg/kg, water 7.8, p<0.01",1.0
same,Glomerular deposition of Ig and C3,[2],in the normal range; also recorded: significantly decreased
same,Glomerular deposition of Ig and C3,[2]; listed as laquinimod,in the normal range
same,Frequency of cells ± SEM: CD4+,[3]; [4],7.0 ± 0.5
same,Frequency of cells ± SEM: CD8+,[3]; [4],4.2 ± 0.2
same,Frequency of cells ± SEM: CD11b^+Ly6C^+Ly6G+,[3]; [4],7.9 ± 1.9
same,Frequency of cells ± SEM: CD11b^+Ly6C^+Ly6G−,[3]; [4],44.4 ± 1.5
same,Frequency of cells ± SEM: CD11b^+MDSC−(Mφ),[3]; [4],31.0 ± 1.8
same,Frequency of cells ± SEM: CD11c^+CD11b+(DC),[3]; [4],0.7 ± 0.1
same,Frequency of cells ± SEM: CD11c^+CD11b− (DC),[3]; [4],3.8 ± 0.2
same,Frequency of cells ± SEM: CD19+,[3]; [4],4.0 ± 0.5
same,Frequency of cells ± SEM: CD4+,[3]; [5],2.8 ± 0.3
same,Frequency of cells ± SEM: CD8+,[3]; [5],2.7 ± 0.2
same,Frequency of cells ± SEM: CD11b^+Ly6C^+Ly6G+,[3]; [5],13.6 ± 1.2
same,Frequency of cells ± SEM: CD11b^+Ly6C^+Ly6G−,[3]; [5],41.2 ± 0.4
same,Frequency of cells ± SEM: CD11b^+MDSC−(Mφ),[3]; [5],28.4 ± 0.9
same,Frequency of cells ± SEM: CD11c^+CD11b+(DC),[3]; [5],0.7 ± 0.1
same,Frequency of cells ± SEM: CD11c^+CD11b− (DC),[3]; [5],1.2 ± 0.1
same,Frequency of cells ± SEM: CD19+,[3]; [5],2.7 ± 0.2
same,Number of MM in the kidneys,"[3]; mouse, in vivo",suppresses numbers of monocytes/macrophages
same,Phenotype of MM isolated from kidneys,"[3]; mouse, in vivo",promoting change from M1 to M2 phenotypes
same,Number of MM in the kidneys,"[3]; mouse, in vivo, listed as laquinimod",significantly reduced
